# Where “and” joins values, the source holds several entries; their conditions need not be identical. Identical values can stand only once. Like-named read-outs stand apart in the source and are kept apart here. Marks after values point to notes of the source that are not given here.
# B1: T. brucei ADKIN (Trypanosoma brucei brucei TREU927) (protein)
# chain: MSSAPLRVYVQCNPLLDVSAHVSDEFLVKYGLERGTAILLSERQKGIFDDIEKMPNVRYVPGGSGLNVARVAQWMQQAYKGKFVTYVGCIADDRYGKVLKEAAEHEGIVMAVEHTTKAGSGACAVCITGKERTLVADLGAANHLSSEHMRSPAVVRAMDESRIFYFSGFTLTVDVNHVLQACRKAREVDGLFMINLSAPFIMQFFSAQLGEVLPYTDIIVANRHEAKEFANMMKWDTDCVEEIARRAVSEVPYTGTKGRVVVFTRDIEPTVIATKDGVETVPVPQLDQDKVIDMNGAGDAFVGGFLSAYAVGKDLRRCCETGHYTAQEVIQQDGCSFPEKPSFSP
# Legend:
# T. brucei Squib 427 = assay: microbe, parasite or virus in culture; format: cell-based, Trypanosoma brucei brucei; conditions: for EC50: Trypanosoma brucei
# Method: (§1) Drug susceptibility tests with Lister 427WT, TbAT1-KO[48], B48[26] and ISMR1[27] were performed using an assay based on the viability indicator dye resazurin in 96-well plates, each well containing 2 × 10^4 cells. The plates were incubated for 48 h with a doubling dilution series of the test compounds in HMI-9/fetal bovine serum at 37 °C/5% CO2 (23 dilutions starting at 100 µM, except for the pentamidine control (50 µM)), after which resazurin (20 µL of 125 µg mL^−1 resazurin sodium salt solution was added to each well (containing 200 µL of cells and test compound)) was added to each well and the plates incubated for another 24 h. Fluorescence was determined using a FLUOstar Optima (BMG Labtech, Durham, NC) and the results fitted to a sigmoid curve with variable slope using Prism 5.0 or Prism 7.04 (GraphPad, San Diego, CA).
# (§2) Susceptibility assays with T. brucei Squib 427[49] or T. b. rhodesiense STIB-900[50] were performed under similar conditions as above, but using 10 concentrations of a 4-fold compound dilution series starting at 64 µM. Trypanosoma brucei Squib 427 was seeded at 1.5 × 10^4 parasites/well and T. b. rhodesiense at 4 × 10^3 parasites per well, followed by the addition of resazurin (final concentration of 10 µg mL^−1) after 24 h (T. brucei) or 6 h (T. b. rhodesiense).
# [1] = test system: T. b. rhodesiense STIB-900; assay: microbe, parasite or virus in culture; format: cell-based, Trypanosoma brucei rhodesiense
# Method: as §1, §2
# [2] = Cytotoxicity on MRC-5 fibroblasts (resazurin); format: cell-based, human; conditions: human
# Method: Cytotoxicity assays were performed on MRC-5SV2 (Sigma-Aldrich/ECACC, catalogue number 84100401) human embryonic lung fibroblasts, which were cultured in minimum essential medium with Earle’s salt medium, supplemented with L-glutamine, NaHCO3 and 5% inactivated foetal calf serum. All cultures and assays were conducted at 37 °C with 5% CO2. Ten microliters of the aqueous compound dilutions were added to 190 µL of MRC-5SV2 (3 × 10^4 cells mL^−1). Cell growth was compared to untreated control wells (100% cell growth) and medium control wells (0% cell growth). After a 3-day incubation, cell viability was assessed fluorimetrically after the addition of 50 μL resazurin per well (final concentration of 10 µg mL^−1). After 4 h at 37 °C, fluorescence was measured (λex 550 nm, λem 590 nm). The results were expressed as percentage reduction in cell growth/viability compared to control wells and an EC50 was determined.
# [3] = test system: T. b. brucei Lister 427WT; assay: Drug susceptibility test (resazurin), Lister 427WT; format: cell-based, Trypanosoma brucei brucei; conditions: Trypanosoma brucei
# Method: as §1
# [4] = test system: ISMR1: isometamidium-resistant T. brucei cell line; assay: microbe, parasite or virus in culture; format: cell-based, Trypanosoma brucei brucei
# Method: as §1
# [5] = test system: TbAT1-KO: T. brucei cell line lacking the TbAT1(P2) transporter gene; assay: microbe, parasite or virus in culture; format: cell-based, Trypanosoma brucei brucei
# Method: as §1
# [6] = test system: B48: pentamidine, diminazene and melaminophenyl arsenical resistant T. brucei line; assay: microbe, parasite or virus in culture; format: cell-based, Trypanosoma brucei brucei; conditions: for EC50: Trypanosoma brucei
# [7] = molecular target: Lister 427WT T. b. brucei; assay: Adenosine deaminase susceptibility (drug sensitivity with/without 2 µM deoxycoformycin); format: cell-based, Trypanosoma brucei brucei; conditions: for EC50: Trypanosoma brucei, Lister 427WT, mean ± SEM, n=3
# Method: as §1, with “CA). […]” for “CA).”
# Adenosine deaminase susceptibility
# in the presence or absence of 2 µM 2’-deoxycoformycin. […]
# [8] = set-up: method as in earlier work; conditions: ref 36 (Olsen, D. B. et al.), cited from earlier work
# [9] = test system: Nc1ncnc2c1ncn2[C@@H]1O[C@H](CO)[C@@H](O)[C@H]1O; assay: cells, lysate or membranes; conditions: other: mean ± SEM, n = 3; pH 7.3
# Method: Non-specific association of radiolabel with the cell pellet was determined using an identical incubation in the presence of saturating (1 mM) unlabelled adenosine.
# [10] = substrate: Nc1ncnc2c1ccn2[C@@H]1O[C@H](CO)C[C@H]1O; assay: ADKIN assay (phosphorylation by purified recombinant enzyme, HPLC); format: biochemical, Trypanosoma brucei; conditions: other: first phosphorylation step; mean and SE, n = 3; pH 7.5
# Method: The T. brucei ADKIN enzyme was diluted in a buffer containing 0.05% (v/v) Tween-20, 50 mM KCl, 0.1 mM dithiothreitol, and 50 mM Tris-HCl, pH 7.5 (dilution buffer), prior to use in the assay. The final assay mixture contained 12.5 ng T. brucei ADKIN, a range between 50 and 1000 µM of nucleoside 9 (or 1000 µM deoxyadenosine in the control reaction), 100 mM KCl, 10 mM MgCl2, 0.5 mM ATP, 5 mM potassium phosphate and 50 mM Tris-HCl, pH 7.5. The assay was incubated at 37 °C for 30 min, and subsequently heated for 2 min at 100 °C to inactivate the enzyme, diluted with 2 volumes of water, centrifuged through a Nanosep 3k Omega filter and mixed 1:1:2 with water and mobile phase. The HPLC analysis was performed on a 2.1 × 150 mm ACE Excel C18 column using a mobile phase composition 4A:76B:20C (see nucleotide pool analysis, Supplementary Information for details). Using these conditions, consecutive samples could be loaded (Supplementary Fig. 12). After 4–5 samples, the column was washed with high percent A (80A:20C) to remove bound ADP and ATP before re-equilibrating the column to original conditions.
molecule,measurement,setting,value
"Nc1ncnc2c1ccn2[C@@H]1O[C@H](CO)[C@@H](O)[C@H]1O [Compound 6, Tubercidin, reference compound]",SI (MRC/T.b. brucei),T. brucei Squib 427,4
same,EC50,"T. brucei Squib 427; Alamar blue cell viability assay, mean and SEM, read-out: T. b. brucei EC50",480 ± 100 nM
same,EC50,"T. brucei Squib 427; source data, read-out: T. brucei brucei EC50, Average",480 nM
same,SI (MRC/T.b. rhodesiense),[1],61
same,EC50,"[1]; Trypanosoma brucei, RHODESIENSE, Alamar blue cell viability assay, mean and SEM, read-out: T. b. rhodesiense EC50",36 ± 1 nM
same,EC50,"[1]; Trypanosoma brucei, RHODESIENSE, source data, read-out: T. brucei rhodesiense EC50, Average",36 nM
same,EC50,"[1]; Trypanosoma brucei, RHODESIENSE, source data, read-out: T. brucei rhodesiense EC50, single measurements",35 nM
same,EC50,"[1]; source data, read-out: T. brucei rhodesiense EC50, single measurements",33.2 nM and 39.9 nM
same,EC50 at 3 day,"[2]; cytotoxicity in human MRC-5 fibroblasts, mean and SEM, read-out: MRC-5 EC50",2200 ± 700 nM
same,EC50 at 3 day,"[2]; source data, read-out: MRC-5 EC50, Average",2230 nM
same,EC50,"[3]; mean and SEM, n = 3, read-out: Lister 427 EC50",150 ± 30 nM
same,EC50,"[3]; source data, read-out: s427 EC50, AVG",151 nM
same,EC50,"[4]; Trypanosoma brucei, mean and SEM, n = 3, read-out: ISMR1 EC50",1700 ± 500 nM
same,EC50,"[4]; Trypanosoma brucei, source data, read-out: ISMR1 EC50, AVG",1670 nM
same,EC50,"[4]; Trypanosoma brucei, source data, read-out: ISMR1 EC50, single determinations",2150 nM
same,RF (ISMR1),[4]; resistance factor vs Lister 427WT,11.1**
same,EC50,"[4]; source data, read-out: ISMR1 EC50, single determinations",1190 nM
same,EC50,"[5]; Trypanosoma brucei, read-out: TbAT1-KO EC50, mean and SEM, n = 3",2610 ± 700 nM
same,EC50,"[5]; Trypanosoma brucei, read-out: TbAT1-KO EC50, single determinations, source data",3260 nM
same,EC50,"[5]; read-out: TbAT1-KO EC50, single determinations, source data",1950 nM
same,RF (TbAT1-KO),[5]; resistance factor: ratio of EC50 of resistant and Lister 427WT,17.2**
same,RF (B48),[6],28.7*
same,EC50,"[6]; mean and SEM, n = 3, read-out: B48 EC50",4300 ± 1300 nM
same,EC50,"[6]; source data, read-out: B48 EC50, AVG",4340 nM
same,effect of adenosine deaminase inhibition (2’-deoxycoformycin) on EC50,[7],not significantly affected
same,EC50,"[7]; absence of deoxycoformycin, read-out: T. b. brucei EC50, -Dcf",220 ± 10 nM
same,EC50,"[7]; presence of 2 µM deoxycoformycin, read-out: T. b. brucei EC50, +Dcf",310 ± 70 nM
same,acute toxicity in mice,[8]; 20 mg/kg over 14 days,tolerated with no visible signs of toxicity
same,acute toxicity in mice,[8]; 50 mg/kg,lethal
P2 transporter (TbAT1) (Trypanosoma brucei),Km,[9],0.53 ± 0.02 µM
B1,Km,[10],195 ± 24 µM

# Source: PMC6895180 (Nature Communications, 2019)
